This is an account of results in paper PMC9231160, “Monoterpenoid Glycosides from the Leaves of Ligustrum robustum and Their Bioactivities” (Molecules, 2022).

“Also recorded” adds a separate entry of the source.

The nature of assay [1]: DPPH radical scavenging assay. The following applies: mean ± SD (n = 3), NA = no activity. The method, then:
Statistical analyses were carried out on GraphPad Prism 5.01. All samples were measured in triplicate. The IC50 (the final concentration of sample needed to inhibit 50% of enzyme activity or scavenge 50% of free radical) was obtained by plotting the inhibition or scavenging percentage of each sample against its concentration. The results are reported as mean ± standard deviation (SD). Differences of means between groups were analyzed by one-way analysis of variance (ANOVA) on statistical package SPSS 13.0. The differences between groups were believed to be significant when p < 0.05.
(§1) S1.3. Determination of α-amylase inhibitory activity.
Phosphate buffer (20 mM, pH 6.9, containing 6 mM NaCl) was used as the solvent in this assay. Sample solution (50 μL, 50-1500 μM) and starch solution (50 μL, 1%, w/v) were mixed and incubated in a 96-well microplate at 37 °C for 10 min.
Then, α-amylase solution (50 μL, 0.2 U/mL) was added and the mixture was incubated at 37 °C for an additional 10 min. […] When the reaction solution cooled to room temperature, all samples were diluted by adding distilled water (50 μL), and then their absorbance was measured using a microplate reader at 540 nm. All samples had little background absorbance (phosphate buffer instead of starch solution) at 540 nm, thus the inhibitory activity was calculated as (Acontrol - Asample)/Acontrol × 100%, in which Asample was the absorbance of the sample and Acontrol was the absorbance of the phosphate buffer control without test samples. […]
The DPPH radical scavenging assay was used to evaluate the antioxidant activity of compounds 1-11. […] The absorbance of the reaction mixture was measured at 517 nm using a microplate reader. The DPPH scavenging activity was calculated by the following formula: DPPH scavenging activity (%) = (Acontrol - Asample)/Acontrol × 100%, where Acontrol was the absorbance of ethanol control without samples, Asample was the absorbance of sample. […]
In general terms: The DPPH test is a chemical assay of radical scavenging.

Assay [2] concerns the target T1, fatty acid synthase (FAS) (Gallus gallus, UniProt P12276).
T1 construct: isolated from chicken liver and kept in ice-bath; from tissue; host or cells: chicken liver
The assay is described as follows: FAS inhibitory activity. In kind it is biochemical, chicken. The following applies: for IC50: FAS isolated from chicken liver, mean ± SD (n = 3), NA = no activity; for FAS inhibitory activity (in words): qualitative statement. The method, then:
(§2) All samples were measured in triplicate. […] Differences of means between groups were analyzed by one-way analysis of variance (ANOVA) on statistical package SPSS 13.0. The differences between groups were believed to be significant when p < 0.05.
S1. Determination of bioactivities.
S1.1. Determination of FAS inhibitory activity. […]
diluted with potassium phosphate buffer (0.1 M, pH 7.0). Sample solution (100 μL, 20-2000 μM, 37 °C) and FAS substrates (1.8 mL, 37 °C) were mixed in a cuvette, and then FAS solution (100 μL, 37 °C, isolated from chicken liver and kept in ice-bath before use) was added. The absorbance of reaction mixture was monitored by a UV-vis spectrophotometer at 340 nm in 1 min. The inhibitory effect was calculated by the following equation: FAS inhibition (%) = (Acontrol - Asample)/Acontrol × 100%, where Acontrol represented the FAS activity in the control group (phosphate buffer instead of sample solution), Asample represented the FAS activity in the sample groups. The FAS activity was calculated as (A0 - A1)/1 min, in which A0 was the absorbance of the reaction mixture when the FAS was added, and A1 was the absorbance of the reaction mixture after reaction 1 min. Orlistat was used as the positive control.
FAS substrates: 0.1 M potassium phosphate buffer (pH 7.0), 1 mM ethylene-

Assay [3] deals with α-Glucosidase from yeast. The assay is described as follows: α-glucosidase inhibitory activity. In kind it is biochemical. Conditions: for α-Glucosidase Inhibition at 0.1 mM: mean ± SD (n = 3), NA = no activity. The method, then:
as §2
S1. Determination of bioactivities. […]
S1.2. Determination of α-glucosidase inhibitory activity. […]
diluted with phosphate buffer (0.1 M, pH 6.8). […]
and 4-nitrophenyl α-D-glucopyranoside (pNPG) solution (50 μL, 5 mM) were mixed and incubated in a 96-well microplate at 37 °C for 5 min. α-Glucosidase from yeast (50 μL, 0.2 U/mL) was added and incubated at 37 °C for another 30 min. Finally, 50 μL of Na2CO3 (1M) was added to terminate the reaction. The absorbance of mixture was measured using a microplate reader at a wavelength 405 nm. […]
following equation: α-glucosidase inhibition (%) = (Acontrol - Asample)/Acontrol × 100%, where Acontrol represented the absorbance of phosphate buffer control without test samples, Asample represented the absorbance of test samples. Acarbose was used as the […]

The subject of assay [4] is α-amylase. In words: α-amylase inhibitory activity. In kind it is biochemical. The following applies: for α-Amylase Inhibition at 0.1 mM: mean ± SD (n = 3), NA = no activity. How it is done:
as §2, §1
Phosphate buffer (20 mM, pH 6.9, containing 6 mM NaCl) was used as the […]
μL, 1%, w/v) were mixed and incubated in a 96-well microplate at 37 °C for 10 min.
Then, α-amylase solution (50 μL, 0.2 U/mL) was added and the mixture was incubated at 37 °C for an additional 10 min. The reaction was stopped by addition of […]
microplate was immediately heated in 95 °C water bath for 10 min. When the reaction solution cooled to room temperature, all samples were diluted by adding distilled water (50 μL), and then their absorbance was measured using a microplate reader at […]
starch solution) at 540 nm, thus the inhibitory activity was calculated as (Acontrol - Asample)/Acontrol × 100%, in which Asample was the absorbance of the sample and Acontrol was the absorbance of the phosphate buffer control without test samples. Acarbose was used as the positive control.
(§3) S1.4. DPPH radical scavenging assay […]

Assay [5] in a line: ABTS radical scavenging assay. The following applies: mean ± SD (n = 3). The method, then:
All samples were measured in triplicate. […] Differences of means between groups were analyzed by one-way analysis of variance (ANOVA) on statistical package SPSS 13.0. The differences between groups were believed to be significant when p < 0.05. […]
as §3
S1.5. ABTS radical scavenging assay
The ABTS radical scavenging assay was used also to evaluate the antioxidant
The ABTS free radical cation (ABTS•+ ) was
manufactured by reacting ABTS stock solution (7 mM) with potassium persulphate

[6] abbreviates: qualitative statement, compared with positive control acarbose.

T1 sequence (P12276 whole entry): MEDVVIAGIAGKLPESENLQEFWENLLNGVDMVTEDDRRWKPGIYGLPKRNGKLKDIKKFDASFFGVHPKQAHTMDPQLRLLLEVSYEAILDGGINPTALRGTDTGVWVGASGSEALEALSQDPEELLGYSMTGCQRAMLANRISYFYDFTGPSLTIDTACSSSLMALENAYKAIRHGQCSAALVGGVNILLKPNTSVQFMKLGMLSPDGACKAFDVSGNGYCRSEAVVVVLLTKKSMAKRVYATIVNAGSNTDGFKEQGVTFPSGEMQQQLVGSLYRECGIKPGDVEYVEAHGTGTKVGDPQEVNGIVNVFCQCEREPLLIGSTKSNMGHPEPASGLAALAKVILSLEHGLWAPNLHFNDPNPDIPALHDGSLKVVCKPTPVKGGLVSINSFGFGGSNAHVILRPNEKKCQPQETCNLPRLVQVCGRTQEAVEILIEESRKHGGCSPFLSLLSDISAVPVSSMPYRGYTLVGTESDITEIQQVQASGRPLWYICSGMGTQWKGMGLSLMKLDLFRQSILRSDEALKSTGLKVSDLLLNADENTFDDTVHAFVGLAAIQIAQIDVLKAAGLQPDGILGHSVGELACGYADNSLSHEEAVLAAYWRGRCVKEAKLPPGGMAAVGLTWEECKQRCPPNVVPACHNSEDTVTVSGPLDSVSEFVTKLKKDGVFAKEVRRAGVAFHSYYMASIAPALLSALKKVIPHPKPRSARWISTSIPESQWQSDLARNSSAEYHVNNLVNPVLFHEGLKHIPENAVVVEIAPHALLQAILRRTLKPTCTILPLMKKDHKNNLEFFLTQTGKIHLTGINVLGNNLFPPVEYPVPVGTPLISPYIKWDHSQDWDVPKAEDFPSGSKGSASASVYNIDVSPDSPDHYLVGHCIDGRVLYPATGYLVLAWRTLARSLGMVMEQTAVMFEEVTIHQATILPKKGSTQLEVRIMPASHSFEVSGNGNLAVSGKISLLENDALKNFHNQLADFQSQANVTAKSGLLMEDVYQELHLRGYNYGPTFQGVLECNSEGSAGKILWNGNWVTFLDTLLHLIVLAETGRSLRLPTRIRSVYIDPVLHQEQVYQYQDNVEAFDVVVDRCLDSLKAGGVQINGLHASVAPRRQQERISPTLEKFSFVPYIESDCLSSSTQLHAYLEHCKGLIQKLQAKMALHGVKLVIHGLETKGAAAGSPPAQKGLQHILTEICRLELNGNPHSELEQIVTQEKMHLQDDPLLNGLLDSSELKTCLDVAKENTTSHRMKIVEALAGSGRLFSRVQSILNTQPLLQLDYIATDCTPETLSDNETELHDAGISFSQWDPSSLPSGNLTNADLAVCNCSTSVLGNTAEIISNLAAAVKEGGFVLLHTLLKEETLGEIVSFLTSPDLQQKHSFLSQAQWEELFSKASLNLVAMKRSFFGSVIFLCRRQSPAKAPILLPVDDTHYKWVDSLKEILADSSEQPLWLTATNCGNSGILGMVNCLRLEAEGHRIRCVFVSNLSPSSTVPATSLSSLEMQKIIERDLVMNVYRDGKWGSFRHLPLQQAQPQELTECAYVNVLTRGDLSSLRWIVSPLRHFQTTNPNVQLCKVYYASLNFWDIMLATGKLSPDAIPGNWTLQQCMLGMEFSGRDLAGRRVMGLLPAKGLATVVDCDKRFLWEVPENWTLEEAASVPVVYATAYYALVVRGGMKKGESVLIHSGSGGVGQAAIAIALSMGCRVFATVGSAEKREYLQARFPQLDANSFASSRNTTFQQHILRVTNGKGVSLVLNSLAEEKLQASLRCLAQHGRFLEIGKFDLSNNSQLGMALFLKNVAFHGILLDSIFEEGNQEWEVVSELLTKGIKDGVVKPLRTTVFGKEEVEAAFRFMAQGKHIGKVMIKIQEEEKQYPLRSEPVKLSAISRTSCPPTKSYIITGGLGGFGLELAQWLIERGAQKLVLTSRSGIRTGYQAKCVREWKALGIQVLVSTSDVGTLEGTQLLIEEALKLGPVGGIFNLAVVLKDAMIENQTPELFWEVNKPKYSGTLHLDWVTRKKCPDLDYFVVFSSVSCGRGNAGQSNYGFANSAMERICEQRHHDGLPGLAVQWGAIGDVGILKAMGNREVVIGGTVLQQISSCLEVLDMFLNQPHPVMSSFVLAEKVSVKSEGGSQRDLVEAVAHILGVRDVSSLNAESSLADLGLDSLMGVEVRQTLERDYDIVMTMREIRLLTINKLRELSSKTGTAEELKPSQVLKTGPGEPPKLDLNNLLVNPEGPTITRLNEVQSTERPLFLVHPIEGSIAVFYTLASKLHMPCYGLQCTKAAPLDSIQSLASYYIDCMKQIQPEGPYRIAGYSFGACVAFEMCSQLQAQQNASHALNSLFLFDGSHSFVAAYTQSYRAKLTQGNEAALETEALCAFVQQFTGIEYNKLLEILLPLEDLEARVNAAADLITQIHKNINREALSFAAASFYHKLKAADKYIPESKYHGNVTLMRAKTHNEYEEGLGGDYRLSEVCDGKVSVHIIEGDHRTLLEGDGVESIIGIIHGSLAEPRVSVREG

For `O=C1O[C@H]([C@@H](O)CO)C(O)=C1O` [L-(+)-ascorbic acid, reference compound], in assay [1], the half-inhibitory concentration (IC50) is 13.66 ± 0.13 µM.

Take `C=C(C)C(O)CCC(C)=CCOC1OC(CO)C(OC(=O)C=Cc2ccc(O)cc2)C(OC2OC(C)C(O)C(O)C2O)C1O` (centres unmarked) [Compound 9]: the IC50 was 21.7 ± 0.46 µM in assay [2] and 18.7 ± 0.47 µM in assay [5]. Also, the “α-Glucosidase Inhibition at 0.1 mM” value in assay [3] is listed as 12.4 ± 5.6 d %. For the same molecule, in assay [4], the “α-Amylase Inhibition at 0.1 mM” value is reported as 29.2 ± 8.4 b %.

Take `C=CC(C)(CCC=C(C)C)O[C@@H]1O[C@H](COC(=O)/C=C/c2ccc(O)cc2)[C@@H](O)[C@H](O[C@@H]2O[C@@H](C)[C@H](O)[C@@H](O)[C@H]2O)[C@H]1O` (mixture of isomers) [Compound 2, 3(R)- and 3(S)-linaloyl-(3-O-α-L-rhamnopyranosyl)-(6-O-trans-p-coumaroyl)-O-β-D-glucopyranoside]: the figures for the concentration for half-maximal inhibition (IC50) in assay [2], in assay [1] and in assay [5] were 2.36 ± 0.1 µM, more than 250 µM and 9.41 ± 0.22 µM, respectively. In assay [2], the “FAS inhibitory activity (in words)” value is reported as “strong FAS inhibitory activity”. In addition, the “α-Glucosidase Inhibition at 0.1 mM” value in assay [3] amounted to 48.1 ± 4.3 b %. For the same molecule, the “α-glucosidase inhibitory effect (in words)” value in assay [3] (setting [6]) was “weaker α-glucosidase inhibitory effect than the positive control acarbose; also recorded: moderate”. For the same molecule, the “α-Amylase Inhibition at 0.1 mM” value in assay [4] is 31.5 ± 0.5 b %. For the same molecule, the “α-amylase inhibitory effect (in words)” value in assay [4] (setting [6]) was “moderate”.

On to `C=CC(C)(CCC(O)C(C)(C)O)OC1OC(COC(=O)C=Cc2ccc(O)cc2)C(O)C(OC2OC(C)C(O)C(O)C2O)C1O` (centres unmarked) [Compound 4], for which the 50% inhibitory concentration (IC50) in assay [2] is more than 100 µM; in assay [5], 9.66 ± 0.17 µM. The “α-Amylase Inhibition at 0.1 mM” value in assay [4] turned out to be 28.2 ± 3.9 b %.

On to `CC(=CCOC1OC(CO)C(OC(=O)C=Cc2ccc(O)cc2)C(OC2OC(C)C(O)C(O)C2O)C1O)CCC(O)C(C)(C)O` (centres unmarked) [Compound 11], for which the IC50 in assay [2] stood at 61.74 ± 0.45 µM; in assay [5], 7.92 ± 0.23 µM. Besides, the “α-Amylase Inhibition at 0.1 mM” value in assay [4] is on record as 31.3 ± 1.3 b %.

For the molecule `COC(C)(C)C=CCC(C)=CCOC1OC(COC(=O)C=Cc2ccc(O)cc2)C(O)C(OC2OC(C)C(O)C(O)C2O)C1O` (centres unmarked) [Compound 8], the IC50 was found to be 25.8 ± 0.47 µM in assay [2] and 19.5 ± 0.46 µM in assay [5]. In addition, the “α-Glucosidase Inhibition at 0.1 mM” value in assay [3] was found to be 24.7 ± 3.5 c %. Also, the “α-Amylase Inhibition at 0.1 mM” value in assay [4] stood at 31.4 ± 1.9 b %.

As for `C=CC(C)(CCC=C(C)C)O[C@@H]1O[C@H](CO)[C@@H](OC(=O)/C=C/c2ccc(O)c(O)c2)[C@H](O[C@@H]2O[C@@H](C)[C@H](O)[C@@H](O)[C@H]2O)[C@H]1O` (mixture of isomers) [Compound 1, 3(R)- and 3(S)-linaloyl-(3-O-α-L-rhamnopyranosyl)-(4-O-trans-caffeoyl)-O-β-D-glucopyranoside], the values for the IC50 in assay [1] and in assay [5] were 19.7 ± 0.23 µM and 6.91 ± 0.1 µM, respectively.

In the case of `C=CC(C)(CCC(O)C(=C)C)O[C@@H]1O[C@H](COC(=O)/C=C/c2ccc(O)cc2)[C@@H](O)[C@H](O[C@@H]2O[C@@H](C)[C@H](O)[C@@H](O)[C@H]2O)[C@H]1O` (stereo partly drawn) [Compound 3, 3-(3,6-dihydroxy-3,7-dimethyl-octa-1,7-dienyl)-(3-O-α-L-rhamnopyranosyl)-(6-O-trans-p-coumaroyl)-O-β-D-glucopyranoside], the IC50 is 21.8 ± 0.38 µM in assay [2] and 16 ± 0.69 µM in assay [5]. In assay [3], the “α-Glucosidase Inhibition at 0.1 mM” value was found to be 27.3 ± 0.3 c %. For the same molecule, the “α-Amylase Inhibition at 0.1 mM” value in assay [4] worked out at 32.5 ± 6.3 b %.

In the case of `C=CC(C)(C/C=C/C(C)(C)OC)O[C@@H]1O[C@H](COC(=O)/C=C/c2ccc(O)cc2)[C@@H](O)[C@H](O[C@@H]2O[C@@H](C)[C@H](O)[C@@H](O)[C@H]2O)[C@H]1O` (stereo partly drawn) [Compound 5, (5E)-3-(3-hydroxy-7-methoxy-3,7-dimethyl-octa-1,5-dienyl)-(3-O-α-L-rhamnopyranosyl)-(6-O-trans-p-coumaroyl)-O-β-D-glucopyranoside], the 50% inhibitory concentration (IC50) in assay [2] is 23.7 ± 0.45 µM; in assay [5], 6.93 ± 0.01 µM. For the same molecule, the “α-Glucosidase Inhibition at 0.1 mM” value in assay [3] is 13.8 ± 2.0 d %. The “α-Amylase Inhibition at 0.1 mM” value in assay [4] was determined as 35.6 ± 2.0 b %.

`CC(C)=CCC/C(C)=C/CO[C@@H]1O[C@H](CO)[C@@H](OC(=O)/C=C/c2ccc(O)cc2)[C@H](O[C@@H]2O[C@@H](C)[C@H](O)[C@@H](O)[C@H]2O)[C@H]1O` [Compound 10, ligurobustoside C]: the concentration for half-maximal inhibition (IC50) in assay [2] stood at 4.68 ± 0.16 µM; in assay [5] it was 15.1 ± 0.1 µM. In addition, in assay [2], the “FAS inhibitory activity (in words)” value is “strong FAS inhibitory activity”. In addition, the “α-Glucosidase Inhibition at 0.1 mM” value in assay [3] turned out to be 28.7 ± 2.1 c %.

In the case of `C=CC(C)(CCC=C(C)C)O[C@@H]1O[C@H](CO)[C@@H](OC(=O)/C=C/c2ccc(O)cc2)[C@H](O[C@@H]2O[C@@H](C)[C@H](O[C@@H]3O[C@@H](C)[C@H](O)[C@@H](O)[C@H]3O)[C@@H](O)[C@H]2O)[C@H]1O` (stereo partly drawn) [Compound 6, linaloyl-[3-O-α-L-rhamnopyranosyl-(1→4)-α-L-rhamnopyranosyl]-(4-O-trans-p-coumaroyl)-O-β-D-glucopyranoside], in assay [2], it took 4.78 ± 0.14 µM to reach half-maximal inhibition (IC50) and the “FAS inhibitory activity (in words)” value was “strong FAS inhibitory activity”. Moreover, in assay [3], the “α-Glucosidase Inhibition at 0.1 mM” value stood at 12.0 ± 1.7 d %. In addition, the “α-Amylase Inhibition at 0.1 mM” value in assay [4] was 26.1 ± 3.0 b %. This molecule also had an IC50 in assay [5] of 11.3 ± 0.16 µM.

Regarding `C=CC(C)(CCC=C(C)C)O[C@@H]1O[C@H](CO)[C@@H](OC(=O)/C=C\c2ccc(O)cc2)[C@H](O[C@@H]2O[C@@H](C)[C@H](O[C@@H]3O[C@@H](C)[C@H](O)[C@@H](O)[C@H]3O)[C@@H](O)[C@H]2O)[C@H]1O` (stereo partly drawn) [Compound 7, linaloyl-[3-O-α-L-rhamnopyranosyl-(1→4)-α-L-rhamnopyranosyl]-(4-O-cis-p-coumaroyl)-O-β-D-glucopyranoside], the IC50 in assay [2] is more than 100 µM; in assay [5] it was 20.2 ± 0.33 µM.

The IC50 is the concentration that gives 50% inhibition.
